Patent publication US12364721B2, “Compositions and methods for treatment of inflammatory and immune diseases” (Prolacta Bioscience, Inc., priority 2019, dated 2025)

Key:
[1] = test system: B. longum subsp. infantis; test: Growth of B. longum subsp. infantis in the presence of acid-reducing compounds (OD600); assay type: cell-based; settings: 24 hours; 125 μg/mL; versus vehicle controls
Protocol: Growth of B. longum subsp. infantis was assessed in the presence of various acid-reducing compounds, including proton pump inhibitor (PPI) compounds and an H2 receptor antagonist. Stock solutions were prepared by adding 10 mg/mL omeprazole, esomeprazole, lansoprazole, pantoprazole, rabeprazole, and famotidine to DMSO. The stock solutions were diluted 1:4 in PBS and then added in 2-fold serial dilutions to Reinforced Clostridial Media (RCM). The media was then inoculated with 5×10^5 colony forming units (CFU) of B. longum subsp. infantis and incubated under anaerobic conditions at 37° C. Vehicle only control groups consisted of 5×10^5 CFU B. longum subsp. infantis incubated in RCM with the same amounts of PBS and DMSO as the PPI conditions for each dose.

[2] = test system: B. longum subsp. infantis; test: Viability of B. longum subsp. infantis after exposure to acid reducing compounds (anaerobic CFU); assay type: cell-based; settings: 1 μg/ml and 0.5 μg/ml in citrate buffer (pH 5), 3 hours at 37° C.; with respect to buffer only controls
Protocol: Viability of B. longum subsp. infantis following exposure to various acid reducing compounds was examined. The benzimidazole derivative compounds omeprazole, esomeprazole, lansoprazole, pantoprazole, and rabeprazole and the H2 receptor antagonist famotidine were suspended in citrate buffer (pH 5) to concentrations of 1 μg/ml and 0.5 μg/ml. An amount of 2.4×10^8 colony forming units (CFU) B. longum subsp. infantis was pelleted and resuspended in each of the citrate buffer and drug solutions. Controls included 2.4×10^8 CFU B. longum subsp. infantis added to citrate buffer alone. Cells were incubated for 3 hours at 37° C. and then plated under anaerobic conditions. Anaerobic CFU were quantified to assess viability.

## Cc1c(OCC(F)(F)F)ccnc1C[S+]([O-])c1nc2ccccc2[nH]1 (centres unmarked) [lansoprazole]
[1]
  OD600 values: reduced OD600 values with respect to vehicle controls
[2]
  anaerobic CFU counts: generally higher
